Reference: ChEMBL document CHEMBL6178010, “XPO1-Targeting Selective Inhibitors of Transcriptional Activation Suppress Graft-versus-Host Disease” (J Med Chem, 2025)

Legend:
Jurkat = assay: Cytotoxicity against human Jurkat cells assessed as suppression of cell viability incubated for 24 hrs by CellTiter-Glo assay; format: functional, cell-based
Exportin-1 = Exportin-1 (Homo sapiens, UniProt O14980); assay: Inhibition of XPO1 in PMA/ionomycin-activated human Jurkat cells expressing IL-2 promoter reporter gene assessed as suppression of IL-2 transcriptional activity incubated for 6 hrs by Bright-Glo Luciferase assay; format: cell-based
Exportin-1, sequence (O14980 whole entry): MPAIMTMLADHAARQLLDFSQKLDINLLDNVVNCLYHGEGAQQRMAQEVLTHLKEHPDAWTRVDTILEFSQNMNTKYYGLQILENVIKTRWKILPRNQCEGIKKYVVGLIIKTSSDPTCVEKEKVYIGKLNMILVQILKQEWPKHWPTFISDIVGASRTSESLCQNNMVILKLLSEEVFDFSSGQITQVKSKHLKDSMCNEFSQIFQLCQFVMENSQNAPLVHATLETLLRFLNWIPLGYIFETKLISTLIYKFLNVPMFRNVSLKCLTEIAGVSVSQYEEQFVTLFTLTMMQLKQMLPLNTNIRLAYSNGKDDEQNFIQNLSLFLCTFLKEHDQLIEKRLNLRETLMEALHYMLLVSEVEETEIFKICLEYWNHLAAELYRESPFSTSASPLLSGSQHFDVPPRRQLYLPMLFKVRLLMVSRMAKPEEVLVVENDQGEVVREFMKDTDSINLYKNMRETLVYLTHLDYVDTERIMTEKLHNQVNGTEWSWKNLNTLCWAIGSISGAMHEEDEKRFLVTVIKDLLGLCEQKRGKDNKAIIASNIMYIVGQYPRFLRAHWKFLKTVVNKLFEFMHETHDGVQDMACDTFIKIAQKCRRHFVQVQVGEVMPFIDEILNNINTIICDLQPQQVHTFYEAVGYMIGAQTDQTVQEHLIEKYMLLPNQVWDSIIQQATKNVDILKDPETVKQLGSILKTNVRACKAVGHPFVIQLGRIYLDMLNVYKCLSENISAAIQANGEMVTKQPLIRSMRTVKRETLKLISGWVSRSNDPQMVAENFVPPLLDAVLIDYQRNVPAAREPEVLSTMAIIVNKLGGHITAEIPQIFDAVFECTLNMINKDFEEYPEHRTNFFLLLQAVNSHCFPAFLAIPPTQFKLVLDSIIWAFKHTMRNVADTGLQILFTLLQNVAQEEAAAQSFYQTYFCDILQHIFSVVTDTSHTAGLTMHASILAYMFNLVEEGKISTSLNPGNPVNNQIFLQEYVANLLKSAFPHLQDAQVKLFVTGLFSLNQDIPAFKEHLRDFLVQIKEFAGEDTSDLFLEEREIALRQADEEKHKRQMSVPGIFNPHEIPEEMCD

XPO1 = assay: Selectivity ratio of EC50 for cytotoxicity against human Jurkat cells assessed as suppression of cell viability to EC50 for inhibition of XPO1 in PMA/ionomycin-activated human Jurkat cells expressing IL-2 promoter reporter gene assessed as suppression of IL-2 transcriptional activity; format: toxicity, cell-based; conditions: read-out: Ratio EC50

Row | Compound | EC50 (Exportin-1) [nM] | EC50 (Jurkat) [nM] | selectivity ratio (XPO1)
1 | CC1=CC(=O)N(Nc2ccc(F)c(N3CC(F)(F)C3)n2)C1=O | 40 | 232 | 5.8
2 | CC1=CC(=O)N(Nc2cc(C(F)(F)F)c(C(F)(F)F)cn2)C1=O | 9.4 | 190 | 20.2
3 | CN(c1ccc(C(F)(F)F)c(N2CC(F)(F)C2)n1)N1CC=CC1=O | 46 | 82 | 1.8
4 | CC1=CC(=O)N(N(C)c2nc(N3CCCC(F)(F)C3)nn3cccc23)C1=O | 209 | 4290 | 20.5
5 | CNc1nc(NN2C(=O)C=C(C)C2=O)ccc1C(F)(F)F | 37 | 661 | 17.9
6 | CC1=CC(=O)N(Nc2ccc(C(F)(F)F)c(N3CCCC3=O)n2)C1=O | 1630 | 4790 | 2.9
7 | CC1=CC(=O)N(N(C)c2ccc(C(F)(F)F)c(N3CCCCCC3)n2)C1=O | 2.5 | 35.9 | 14.4
8 | COCC#Cc1cc(NN2C(=O)C=C(C)C2=O)cc(C(F)(F)F)c1 | 61 | 696 | 11.4
9 | CC1=CC(=O)N(N(C)c2ccc(C(F)(F)F)c(N3CC(F)(F)C3)n2)C1=O | 7.1 | 47 | 6.6
10 | CC1=CC(=O)N(N(C)c2nc(N3CC(F)(F)C3)nn3cccc23)C1=O | 250 | 2250 | 9
11 | CC1=CC(=O)N(Nc2ccc(C(F)(F)F)c(N3CC4(CCC4)C3)n2)C1=O | 13 | 82 | 6.3
12 | CC1=CC(=O)N(N(C)c2ccc(C(F)(F)F)c(N3CCC(F)(F)CC3)n2)C1=O | 9.7 | 75 | 7.7
13 | CC1=CC(=O)N(Nc2ccc(C(F)(F)F)c(N3CC4CC(C4)C3)n2)C1=O | 7.3 | 38.1 | 5.2
14 | CC1=CC(=O)N(Nc2cc(C(F)(F)F)cc(C(F)(F)F)n2)C1=O | 18 | 91 | –
15 | CC1=CC(=O)N(Nc2ccc(C(F)(F)F)c(-n3ccnc3)n2)C1=O | 447 | 1900 | 4.2
16 | CO[C@H]1CCN(c2nc(NN3C(=O)C=C(C)C3=O)ccc2C(F)(F)F)C1 | 20.4 | 492 | 24.1
17 | CC1=CC(=O)N(N(C)c2ccc(C(F)(F)F)c(N3CCCCC3)n2)C1=O | 5.3 | 66 | 12.5
18 | CC1=CC(=O)N(N(C)c2ccc(C(F)(F)F)c(N3CCCC(F)(F)C3)n2)C1=O | 11 | 70.9 | 6.4
19 | CC1=CC(=O)N(Nc2ccc3cn[nH]c3n2)C1=O | 1820 | 6310 | 3.5

Now from value to compound, other results behind:

Row | EC50 (Exportin-1) [nM] | Compound | EC50 (Jurkat) [nM] | selectivity ratio (XPO1)
20 | 963 | CC1=C(C)C(=O)N(Nc2nc(C(F)(F)F)nn3cccc23)C1=O | 920 | 0.96
21 | 550 | CC1=CC(=O)N(Nc2nc(-c3ccno3)nn3cccc23)C1=O | 5620 | 10.2
22 | 30.1 | CC1=CC(=O)N(Nc2nc(N3CCCCC3)nn3cccc23)C1=O | 148 | 4.9
23 | 170 | CC1=CC(=O)N(Nc2nc(C3CCCC3)nn3cccc23)C1=O | 955 | 5.6
24 | 76 | CC1=CC(=O)N(Nc2nc(Cl)nn3cccc23)C1=O | 813 | 10.7
25 | 80.2 | CC1=CC(=O)N(Nc2nc(N(C)C3CCCC3)nn3cccc23)C1=O | 423 | 5.3
26 | 58 | CC1=CC(=O)N(Nc2nc(N3CC(F)(F)C3)nn3cccc23)C1=O | 447 | 7.7
27 | 107 | CC1=CC(=O)N(Nc2nc(C3CC3)nn3cccc23)C1=O | 347 | 3.2
28 | 44.7 | CC1=CC(=O)N(Nc2nc(-c3cccs3)nn3cccc23)C1=O | 170 | 3.8
